Results on three compounds are retold here after US10800816B2 (Baxalta GmbH, priority 2012, dated 2020).

pEC50, pKd: −log10 of the molar value. ≈ marks a conversion by molar mass, not a printed value.

Series [1] is described as follows: Pharmacokinetics in C57Bl6 mice. The format is in vivo, mouse.
For another series, the target named is T1, human TFPI-1 (Homo sapiens, UniProt P10646).
T1 construct: human TFPI-1 (residues 29-282 fused at the C-terminus to a 10 His-tag); purchased R&D Systems 2974-PI
T1 sequence (P10646 29-282): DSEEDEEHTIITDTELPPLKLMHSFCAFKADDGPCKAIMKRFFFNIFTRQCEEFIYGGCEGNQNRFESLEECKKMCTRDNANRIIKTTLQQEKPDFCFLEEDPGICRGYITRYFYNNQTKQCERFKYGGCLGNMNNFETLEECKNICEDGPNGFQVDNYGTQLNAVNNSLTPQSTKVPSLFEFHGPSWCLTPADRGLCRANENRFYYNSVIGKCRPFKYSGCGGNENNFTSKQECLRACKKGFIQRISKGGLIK
As to the kind of experiment: BIAcore surface plasmon resonance, immobilized human TFPI-1. The format is binding. The note with it: Table 6. On the technique in general: SPR reads the build-up and loss of mass on a sensor chip optically.

The test system of another series is TFPI. Put plainly: FXa inhibition assay (human TFPI). The note with it: read-out: FXa Inhibition Assay EC50; Table 7 and text b402.
The subject of a further series is C57Bl/6NCrl mice. Put plainly: Nail clip bleeding study in mice. The format is in vivo, mouse.
Series [2] concerns FVIII-inhibited whole blood. As to the kind of experiment: Rotation thromboelastography (ROTEM) in whole blood. Also noted: species or system human. As to conditions: Hem A / FVIII-inhibited human whole blood. As for the experimental part: Continuous visco-elastic assessment of human whole blood clot formation and firmness was performed by rotation thromboelastography with whole blood preparations in the presence or absence of peptides. […] Test samples were prepared by dissolving quantities of peptides in either DMSO or HEPES buffered saline (with or without 0.1% Tween 80).
Recordings were made using a ROTEM thromboelastography coagulation analyzer (Pentapharm, Munich, Germany) at 37° C. Briefly, blood is added into a disposable cuvette in a heated cuvette holder. A disposable pin (sensor) is fixed on the tip of a rotating axis. The axis is guided by a high precision ball bearing system and rotates back and forth. The axis is connected with a spring for the measurement of elasticity. The exact position of the axis is detected by the reflection of light on a small mirror on the axis. The loss of elasticity when the sample clots leads to a change in the rotation of the axis. The data obtained are computer analyzed and visualized in a thromboelastogram. […] An elasticity of approximately zero is observed before clot formation begins. Mirror image traces above and below the zero line indicate the effect of clot formation on the rotation of the axis.
The analytical set-up was as follows: to 20 μL of test sample or control, 300 μL of pre-warmed (37° C.) CTI treated citrated whole blood was added, followed by 20 μL of a 1:15 dilution of TF PRP reagent containing recombinant human tissue factor (rTF, 3 pM) (TS40, Thrombinoscope BV, Maastricht, The Netherlands). Coagulation was initiated by the addition of 20 μ200 mM CaCl2 (star-TEM®, Pentapharm, Munich, Germany) and recordings were allowed to proceed for at least 120 min. The final concentration of rTF in the assay was 11 or 44 fM.
The thromboelastographic parameters of clotting time (CT), clot formation time (CFT) and maximum clot firmness (MCF) were recorded in accordance with the manufacturer's instructions. CT is defined as the time from the start of measurement to the start of clot formation. CFT is defined as the time from the start of clot formation until an amplitude of 20 mm is reached. MCF is the maximum difference in amplitude between the two traces during the assay. The first derivative of the data of the thromboelastogram are plotted to obtain a graph of velocity (mm/s) against time (s). From this graph, the maximum velocity (maxV) is determined. The time at which the maximum velocity is obtained (maxV-t) is also determined.
This example describes a method for assessing clot formation in whole blood using rotation thromboelastography (ROTEM). The assay was performed as described in Example 8. The analytical set-up was as follows: 300 μL of pre-warmed (37° C.) CTI treated citrated whole blood was added to a peptide sample (10, 100, 1000 nM final assay concentration) or a control, followed by addition of a 1:15 dilution of TF PRP reagent containing recombinant human tissue factor (rTF, 3 pM) (TS40, Thrombinoscope BV, Maastricht, The Netherlands). In certain experiments, exogenous full length TFPI (flTFPI) at final concentrations of 2 or 10 nM was added to simulate flTFPI plasma levels of up to 50-fold over normal. Coagulation was initiated by the addition of 20 μL 200 mM CaCl2 (star-TEM®, Pentapharm, Munich, Germany) and recordings were allowed to proceed for at least 120 min. The final concentration of rTF in the assay was 44 fM. The thromboelastographic parameters of clotting time (CT), clot formation time (CFT) and maximum clot firmness (MCF) were recorded in accordance with the manufacturer's instructions. CT is defined as the time from the start of measurement to the start of clot formation. CFT is defined as the time from the start of clot formation until an amplitude of 20 mm is reached. MCF is the maximum difference in amplitude between the two traces during the assay.

A further series deals with FIX knock-out mice. Put plainly: Tail-tip bleed model in FIX knock-out mice. The format is in vivo, mouse. As to conditions: 1 mg/kg JBT2329 alone. As for the experimental part:
JBT2329 also was tested in a FIX knock-out tail-tip bleed mouse model, which is a clinically-relevant model for hemophilia B human patients. The methodology was substantially similar to that described above with respect to the FVIII knock-out model. Instead of ADVATE, a recombinant FIX (rFIX) served as a reference. Median total blood loss in buffer-treated animals was 935 mg. Median total blood loss in animals treated with a murine anti-TFPI antibody (maTFPI) was 774 mg. Median total blood loss was reduced further when the animals received combined treatment of maTFPI and rFIX.

A further series concerns FVIII-deficient mice. As to the kind of experiment: Puncture-induced hemarthrosis in FVIII-deficient mice. The format is in vivo, mouse. The note with it: 1 mg/kg i.v. As for the experimental part: After each product administration, the right knee joint capsule was punctured with a 30 gauge needle to induce hemorrhage. Animals were sacrificed three days following injury, and bleeding was assessed via gross and histological methods. […] Summary bleeding scores (SBS), which include visual and histological bleeding scores, were assigned to each joint. […] The results described herein further confirm that peptides of the invention provide a prophylactic or protective effect against bleeding in an in vivo model of hemophilia A.

The next series deals with T2, fl-TFPI / LRP (Homo sapiens, UniProt P10646).
T2 sequence (P10646 29-304): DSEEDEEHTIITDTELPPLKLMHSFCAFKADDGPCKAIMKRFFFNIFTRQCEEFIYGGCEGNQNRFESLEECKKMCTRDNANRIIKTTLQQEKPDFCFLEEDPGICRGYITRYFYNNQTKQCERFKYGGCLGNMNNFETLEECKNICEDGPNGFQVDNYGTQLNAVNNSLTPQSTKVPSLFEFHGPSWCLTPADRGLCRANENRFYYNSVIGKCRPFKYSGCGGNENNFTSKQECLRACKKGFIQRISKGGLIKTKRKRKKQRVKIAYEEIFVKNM
T2 sequence (Q07954 852-1182 partner limits assumed): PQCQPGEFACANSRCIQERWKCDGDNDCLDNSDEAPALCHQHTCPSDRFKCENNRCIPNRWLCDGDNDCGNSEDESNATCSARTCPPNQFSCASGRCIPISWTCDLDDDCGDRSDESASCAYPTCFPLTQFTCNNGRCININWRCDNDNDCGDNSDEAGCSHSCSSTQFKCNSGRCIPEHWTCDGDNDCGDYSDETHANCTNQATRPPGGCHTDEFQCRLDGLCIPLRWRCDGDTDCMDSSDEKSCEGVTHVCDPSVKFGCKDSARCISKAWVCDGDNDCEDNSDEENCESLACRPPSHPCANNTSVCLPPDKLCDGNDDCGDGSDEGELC
Put plainly: BIAcore: fl-TFPI binding to LRP in presence of peptide. The note with it: 1 μM peptide, 10 nM fl-TFPI.

In the next series the target is T3, fl-TFPI / ASGPR (Homo sapiens, UniProt P10646).
T3 sequence (P10646 29-304): T2 sequence (P10646 29-304)
Put plainly: BIAcore: fl-TFPI binding to ASGPR in presence of peptide. The note with it: 1 μM peptide.

The conditions of series [3]: mouse, 24 h.
The conditions of series [4]: 24 h.
The test system of the next series is FVIII knock-out mice. The note with it: 1 mg/kg without ADVATE.
[5] abbreviates: 0.1 mg/kg i.v., first 30 minutes.
[6] abbreviates: 0.1 mg/kg i.v., second 30 minute period.

As usually defined, the solubility is how much of the substance goes into solution per volume. A low value points to little dissolved substance. `CC(=O)N[C@@H](Cc1ccccc1)C(=O)N[C@@H](CCC(N)=O)C(=O)N[C@@H](CO)C(=O)N[C@@H](CCCCN)C(=O)NCC(=O)N[C@@H](CC(N)=O)C(=O)N[C@H](C(=O)N[C@@H](Cc1ccccc1)C(=O)N[C@H](C(=O)N[C@@H](CC(=O)O)C(=O)NCC(=O)N[C@@H](Cc1ccc(O)cc1)C(=O)N[C@@H](Cc1ccccc1)C(=O)N[C@@H](CCC(=O)O)C(=O)N[C@@H](CCCNC(=N)N)C(=O)N[C@@H](CC(C)C)C(=O)NC(C)(C)C(=O)N[C@@H](C)C(=O)N[C@@H](CCCCN)C(=O)N[C@@H](CC(C)C)C(N)=O)C(C)C)C(C)C` [JBT0740]: the “plasma concentration after intravenous administration” value in [1] (10 mg/kg i.v., FIG. 31) is given as “rapidly cleared from the plasma”. The solubility in “physchem” was 920 µg/mL (≈ 392 µM).
One may read the pKd as −log10 of the Kd, conventionally taken in molar units. Low readings indicate a large Kd, high ones a small Kd. Usually pEC50 stands for the EC50 on a negative log10 scale, so that one unit is a factor of ten. For Ac-FQSKNNVFVFGYFERLRAKL-NH2 [JBT0297], on human TFPI-1, the pKd is 7.54. In addition, the pEC50 in the series on TFPI was 6.22.
For the compound “Ac-FQSKpNVHVDGYFERL-Aib-AKLC(PEG)-NH2 [JBT2329] (FQSKPNVHVDGYFERLXAKLC; acetyl, D-Pro, Aib, Cys-PEG 41.5 kD, amide; MOD_RES (1)..(1): N-terminal acetylation; MOD_RES (5)..(5): D-Pro; MOD_RES (17)..(17): Xaa is 2-amino-isobutyric acid; MOD_RES (21)..(21): Cys-PEG; MOD_RES (21)..(21): C-terminal amidation)”, the “reduction of total blood loss compared to vehicle” value with C57Bl/6NCrl mice (0.1 mg/kg i.v., 60 minutes) is listed as ~60%. For the same compound, the mean blood loss turned out to be 34.7 µL with C57Bl/6NCrl mice (0.1 mg/kg i.v., 60 minutes total); 16.0 µL in the series with C57Bl/6NCrl mice (setting [5]); 18.7 µL with C57Bl/6NCrl mice (setting [6]); 22.8 µL in the series on C57Bl/6NCrl mice (1.0 mg/kg i.v., entire 60 minutes); 12.2 µL in the series with C57Bl/6NCrl mice (1.0 mg/kg i.v., first 30 minutes); 10.6 µL in the series with C57Bl/6NCrl mice (1.0 mg/kg i.v., second 30 minute period). Besides, the “reduction of blood loss compared to vehicle” value in the series with C57Bl/6NCrl mice (setting [5]) is on record as “about 50%”; with C57Bl/6NCrl mice (setting [6]), “about 64%”; with C57Bl/6NCrl mice (10 mg/kg subcutaneous, 60 minutes) it was “approximately 58%”. The coagulation parameters entry in series [2] is “restored prolonged coagulation parameters in Hem A blood”. The figures for the “effect on median total blood loss” value in the series with FIX knock-out mice and in the series on FVIII knock-out mice were “did not lead to a significant reduction in median total blood loss” and “did not reduce median total blood loss over that observed in buffer-treated animals”, respectively. The “HL_λ_z [h] (intravenous)” value in series [1] (1 mg/kg peptide content, intravenous) turned out to be 19.8 h. Further, in series [1] (1 mg/kg peptide content, s.c. AUC vs i.v. AUC), the “Bioavailability [%] (s.c.)” value came to 73.3%. In addition, in the series with FVIII-deficient mice, the “protective effect on joint bleeding (summary bleeding score)” value is on record as “significantly greater than the effect of 10 IU/kg ADVATE, but less than 100 IU/kg ADVATE”. The “fl-TFPI interaction with LRP in presence of peptide” value in the series with fl-TFPI / LRP is “slight decrease in fl-TFPI LRP interaction”. For the same compound, the “fl-TFPI interaction with ASGPR in presence of peptide” value in the series with fl-TFPI / ASGPR is given as “diminished the ASGPR-fl-TFPI interaction”. Further, in series [3], the “percentage of initial amount of peptide remaining in plasma” value is on record as ≥ 60%. Moreover, the “Human Plasma Stability, 24 hour (%)” value in [4] was 67.3%.
